Experimental data from ChEMBL document CHEMBL5724914, “Linking interpersonal differences in gut microbiota composition and drug biotransformation activity” (2024).

How the values were obtained:
[1] = human gut metagenome, 24 h, 2 µM
[2] = The drug is tested on Z-007 corresponding to rat gut metagenome with ENA study accession number: PRJEB37062 and ENA sample accession number: ERS12561807 for biotransformation under anaerobic condition. The drug concentrations were measured over 9 timepoints collected between 0 and 24 hours of incubation by liquid-chromatography-coupled mass spectrometry (LC–MS); conditions: 2 µM
[3] = human gut metagenome, 24 h, 2 µM; remark: listed apart in the source
[4] = human gut metagenome, 24 h, 2 µM; remark: listed apart in the source
[5] = human gut metagenome, 24 h, 2 µM; remark: listed apart in the source
[6] = The drug is tested on WLS-350 corresponding to human gut metagenome with ENA study accession number: PRJEB37062 and ENA sample accession number: ERS12561789 for biotransformation under anaerobic condition. The drug concentrations were measured over 9 timepoints collected between 0 and 24 hours of incubation by liquid-chromatography-coupled mass spectrometry (LC–MS); conditions: 2 µM
[7] = The drug is tested on Z-027 corresponding to metagenome with ENA study accession number: PRJEB37062 and ENA sample accession number: ERS12561826 for biotransformation under anaerobic condition. The drug concentrations were measured over 9 timepoints collected between 0 and 24 hours of incubation by liquid-chromatography-coupled mass spectrometry (LC–MS); conditions: 2 µM
[8] = The drug is tested on WLS-007 corresponding to human gut metagenome with ENA study accession number: PRJEB37062 and ENA sample accession number: ERS12561742 for biotransformation under anaerobic condition. The drug concentrations were measured over 9 timepoints collected between 0 and 24 hours of incubation by liquid-chromatography-coupled mass spectrometry (LC–MS); conditions: 2 µM
[9] = human gut metagenome, 24 h, 2 µM; remark: listed apart in the source
[10] = The drug is tested on Z-021 corresponding to metagenome with ENA study accession number: PRJEB37062 and ENA sample accession number: ERS12561820 for biotransformation under anaerobic condition. The drug concentrations were measured over 9 timepoints collected between 0 and 24 hours of incubation by liquid-chromatography-coupled mass spectrometry (LC–MS); conditions: 2 µM
[11] = human gut metagenome, 24 h, 2 µM; remark: listed apart in the source
[12] = human gut metagenome, 24 h, 2 µM; remark: listed apart in the source
[13] = human gut metagenome, 24 h, 2 µM; remark: listed apart in the source
[14] = human gut metagenome, 24 h, 2 µM; remark: listed apart in the source
[15] = The drug is tested on Z-022 corresponding to mouse gut metagenome with ENA study accession number: PRJEB37062 and ENA sample accession number: ERS12561821 for biotransformation under anaerobic condition. The drug concentrations were measured over 9 timepoints collected between 0 and 24 hours of incubation by liquid-chromatography-coupled mass spectrometry (LC–MS); conditions: 2 µM
[16] = human gut metagenome, 24 h, 2 µM; remark: listed apart in the source
[17] = The drug is tested on Z-010 corresponding to metagenome with ENA study accession number: PRJEB37062 and ENA sample accession number: ERS12561810 for biotransformation under anaerobic condition. The drug concentrations were measured over 9 timepoints collected between 0 and 24 hours of incubation by liquid-chromatography-coupled mass spectrometry (LC–MS); conditions: 2 µM
[18] = human gut metagenome, 24 h, 2 µM; remark: listed apart in the source
[19] = The drug is tested on Z-023 corresponding to metagenome with ENA study accession number: PRJEB37062 and ENA sample accession number: ERS12561822 for biotransformation under anaerobic condition. The drug concentrations were measured over 9 timepoints collected between 0 and 24 hours of incubation by liquid-chromatography-coupled mass spectrometry (LC–MS); conditions: 2 µM
[20] = human gut metagenome, 24 h, 2 µM; remark: listed apart in the source
Further: call rule not given here.

Compound: Cc1ccc(S(=O)(=O)NC(=O)NN2CCCCCC2)cc1 [TOLAZAMIDE]
- Bacterial Biotransformation [1]: Compound NOT metabolized
- Bacterial Biotransformation [2]: Compound NOT metabolized
- Bacterial Biotransformation [3]: Compound metabolized
- Bacterial Biotransformation [4]: Compound metabolized
- Bacterial Biotransformation [5]: Compound metabolized
- Bacterial Biotransformation [6]: Compound NOT metabolized
- Bacterial Biotransformation [7]: Compound NOT metabolized
- Bacterial Biotransformation [8]: Compound metabolized
- Bacterial Biotransformation [9]: Compound metabolized
- Bacterial Biotransformation [10]: Compound metabolized
- Bacterial Biotransformation [11]: Compound NOT metabolized
- Bacterial Biotransformation [12]: Compound NOT metabolized
- Bacterial Biotransformation [13]: Compound metabolized
- Bacterial Biotransformation [14]: Compound metabolized
- Bacterial Biotransformation [15]: Compound metabolized
- Bacterial Biotransformation [16]: Compound NOT metabolized
- Bacterial Biotransformation [17]: Compound metabolized
- Bacterial Biotransformation [18]: Compound NOT metabolized
- Bacterial Biotransformation [19]: Compound metabolized
- Bacterial Biotransformation [20]: Compound metabolized

Compound: CCOC(=O)[C@H](CCc1ccccc1)N[C@@H](C)C(=O)N1[C@H](C(=O)O)C[C@H]2CCCC[C@@H]21 [TRANDOLAPRIL]
- Bacterial Biotransformation [1]: Compound NOT metabolized
- Bacterial Biotransformation [2]: Compound NOT metabolized
- Bacterial Biotransformation [3]: Compound NOT metabolized
- Bacterial Biotransformation [4]: Compound metabolized
- Bacterial Biotransformation [5]: Compound metabolized
- Bacterial Biotransformation [6]: Compound NOT metabolized
- Bacterial Biotransformation [7]: Compound NOT metabolized
- Bacterial Biotransformation [8]: Compound metabolized
- Bacterial Biotransformation [9]: Compound metabolized
- Bacterial Biotransformation [10]: Compound NOT metabolized
- Bacterial Biotransformation [11]: Compound NOT metabolized
- Bacterial Biotransformation [12]: Compound NOT metabolized
- Bacterial Biotransformation [13]: Compound metabolized
- Bacterial Biotransformation [14]: Compound metabolized
- Bacterial Biotransformation [15]: Compound NOT metabolized
- Bacterial Biotransformation [16]: Compound NOT metabolized
- Bacterial Biotransformation [17]: Compound metabolized
- Bacterial Biotransformation [18]: Compound NOT metabolized
- Bacterial Biotransformation [19]: Compound metabolized
- Bacterial Biotransformation [20]: Compound metabolized

Compound: CC(CN(C)C)CN1c2ccccc2CCc2ccccc21.O=C(O)/C=C\C(=O)O (stereo not given) [TRIMIPRAMINE MALEATE]
- Bacterial Biotransformation [1]: Compound NOT metabolized
- Bacterial Biotransformation [2]: Compound NOT metabolized
- Bacterial Biotransformation [3]: Compound metabolized
- Bacterial Biotransformation [4]: Compound NOT metabolized
- Bacterial Biotransformation [5]: Compound metabolized
- Bacterial Biotransformation [6]: Compound NOT metabolized
- Bacterial Biotransformation [7]: Compound NOT metabolized
- Bacterial Biotransformation [8]: Compound metabolized
- Bacterial Biotransformation [9]: Compound NOT metabolized
- Bacterial Biotransformation [10]: Compound NOT metabolized
- Bacterial Biotransformation [11]: Compound metabolized
- Bacterial Biotransformation [12]: Compound metabolized
- Bacterial Biotransformation [13]: Compound metabolized
- Bacterial Biotransformation [14]: Compound NOT metabolized
- Bacterial Biotransformation [15]: Compound NOT metabolized
- Bacterial Biotransformation [16]: Compound NOT metabolized
- Bacterial Biotransformation [17]: Compound NOT metabolized
- Bacterial Biotransformation [18]: Compound metabolized
- Bacterial Biotransformation [19]: Compound metabolized
- Bacterial Biotransformation [20]: Compound NOT metabolized

Compound: CC(=O)CC(c1ccccc1)c1c(O)c2ccccc2oc1=O (stereo not given) [WARFARIN]
- Bacterial Biotransformation [1]: Compound metabolized
- Bacterial Biotransformation [2]: Compound NOT metabolized
- Bacterial Biotransformation [3]: Compound metabolized
- Bacterial Biotransformation [4]: Compound metabolized
- Bacterial Biotransformation [5]: Compound metabolized
- Bacterial Biotransformation [6]: Compound metabolized
- Bacterial Biotransformation [7]: Compound NOT metabolized
- Bacterial Biotransformation [8]: Compound metabolized
- Bacterial Biotransformation [9]: Compound metabolized
- Bacterial Biotransformation [10]: Compound NOT metabolized
- Bacterial Biotransformation [11]: Compound metabolized
- Bacterial Biotransformation [12]: Compound metabolized
- Bacterial Biotransformation [13]: Compound metabolized
- Bacterial Biotransformation [14]: Compound metabolized
- Bacterial Biotransformation [15]: Compound metabolized
- Bacterial Biotransformation [16]: Compound metabolized
- Bacterial Biotransformation [17]: Compound metabolized
- Bacterial Biotransformation [18]: Compound metabolized
- Bacterial Biotransformation [19]: Compound metabolized
- Bacterial Biotransformation [20]: Compound metabolized

Compound: Cc1ccc(-c2nc3ccc(C)cn3c2CC(=O)N(C)C)cc1 [ZOLPIDEM]
- Bacterial Biotransformation [1]: Compound NOT metabolized
- Bacterial Biotransformation [2]: Compound NOT metabolized
- Bacterial Biotransformation [3]: Compound NOT metabolized
- Bacterial Biotransformation [4]: Compound NOT metabolized
- Bacterial Biotransformation [5]: Compound metabolized
- Bacterial Biotransformation [6]: Compound NOT metabolized
- Bacterial Biotransformation [7]: Compound NOT metabolized
- Bacterial Biotransformation [8]: Compound NOT metabolized
- Bacterial Biotransformation [9]: Compound NOT metabolized
- Bacterial Biotransformation [10]: Compound NOT metabolized
- Bacterial Biotransformation [11]: Compound NOT metabolized
- Bacterial Biotransformation [12]: Compound NOT metabolized
- Bacterial Biotransformation [13]: Compound metabolized
- Bacterial Biotransformation [14]: Compound metabolized
- Bacterial Biotransformation [15]: Compound metabolized
- Bacterial Biotransformation [16]: Compound NOT metabolized
- Bacterial Biotransformation [17]: Compound metabolized
- Bacterial Biotransformation [18]: Compound metabolized
- Bacterial Biotransformation [19]: Compound metabolized
- Bacterial Biotransformation [20]: Compound metabolized
